For series [1], the system named is SMN2 minigene (full length SMN2 minigene mRNA containing SMN2 exon 7). The series can be described thus: SMN2 minigene mRNA splicing RT-qPCR assay in cultured cells. Type of series: cell-based, human. Particulars: Homo sapiens, HEK293-H, read-out: EC1.5x for production of full length SMN2 mRNA. The method in brief:
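HEK293H cells stably carrying the SMN2-A minigene treated 24 h at 37° C with compound (DMSO, 200× stock), then lysed. Multiplex RT-qPCR (SMN primers 0.4 μM final; 40 cycles) measures full-length exon 7-containing minigene mRNA, normalized to GAPDH and to vehicle; EC1.5x derived and binned by stars.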

Another series has as its system Smn protein. The series can be described thus: Smn protein assay in cultured cells (SMN HTRF). Particulars: 48 hours; for maximum fold (Fold) increase of Smn protein: SMA patient fibroblast cells, 7-point concentration data, fold increase relative to vehicle control (SMN HTRF); for EC1.5x (concentration giving 1.5-fold Smn protein increase): SMA Type 1 patient fibroblast cells (GM03813), 7-point concentration curve, SMN HTRF, concentration producing 1.5 times Smn protein vs DMSO vehicle control, read-out: EC1.5x for Smn protein expression. The format is cell-based, human. The method in brief:
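Lysates in RIPA with protease inhibitors are incubated overnight at room temperature with HTRF anti-SMN antibodies. EC1.5x is derived from fold increase in ΔF over vehicle.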
On the technique in general: TR-FRET usually uses a lanthanide donor and a delayed reading to cut background.

Where [2] appears, read: HEK293H cells stably transfected with SMN2-A minigene, 24 hours, 7-point concentration curve, 1.5-fold relative to vehicle-treated cells.

Where two headings read alike, the source gives them in different places.

The melting point is the temperature of the solid-liquid transition.

Take `COc1cc(-c2cc3ccc(N4CCNCC4)cc3oc2=O)ccc1F` [Compound 576, 3-(4-fluoro-3-methoxyphenyl)-7-(piperazin-1-yl)-2H-chromen-2-one]: the melting point lay within 153 to 155 °C. For the same molecule, the EC (1.5-fold) in series [1] (setting [2]) was 1 to 3 µM. Moreover, in the series on Smn protein, the “maximum fold (Fold) increase of Smn protein” value (“maximum fold (Fold) increase” for short) is given as “* (maximum fold increase of ≤1.2)”.

The molecule `O=c1oc2cc(N3CCN4CCC[C@@H]4C3)ccc2cc1-c1cn2cccc(F)c2n1` [Compound 531, 3-(8-fluoroimidazo[1,2-a]pyridin-2-yl)-7-[(8aR)-hexahydropyrrolo[1,2-a]pyrazin-2(1H)-yl]-2H-chromen-2-one] had a melting point of 238 to 241 °C. In addition, the EC (1.5-fold) in series [1] (setting [2]) fell in the range of 0.3 to 1 µM. Moreover, in the series on Smn protein, the “maximum fold (Fold) increase” value is “** (fold increase between >1.2 and ≤1.35)”.

`Cc1cccn2cc(-c3cc4ccc(N5CCCNCC5)cc4oc3=O)nc12` [Compound 281, 7-(1,4-diazepan-1-yl)-3-(8-methylimidazo[1,2-a]pyridin-2-yl)-2H-chromen-2-one] had a melting point of 138 to 140 °C. In series [1] (setting [2]), the EC (1.5-fold) is 0.3 to 1 µM. The “maximum fold (Fold) increase” value in the series on Smn protein was “** (fold increase between >1.2 and ≤1.35)”.

Consider `CN1CCN(c2ccc3cc(-c4cn5cccc(C6CC6)c5n4)c(=O)oc3c2)CC1` [Compound 244, 3-(8-cyclopropylimidazo[1,2-a]pyridin-2-yl)-7-(4-methylpiperazin-1-yl)-2H-chromen-2-one], for which the melting point lay in the range of 198 to 202 °C. Moreover, the EC (1.5-fold) in series [1] (setting [2]) was in the range of 0.3 to 1 µM. Further, in the series with Smn protein, the “maximum fold (Fold) increase” value is “* (maximum fold increase of ≤1.2)”.

With `Cc1cn2cc(-c3cc4ccc(N5CCN(C(C)C)CC5)cc4oc3=O)nc2cn1` [Compound 833, 3-(6-methylimidazo[1,2-a]pyrazin-2-yl)-7-[4-(propan-2-yl)piperazin-1-yl]-2H-chromen-2-one], the melting point fell in the range of 275 to 280 °C. Besides, the EC (1.5-fold) in series [1] (setting [2]) was less than 0.1 µM. Also, in the series with Smn protein, the EC1.5x (concentration giving 1.5-fold Smn protein increase) was less than 300 nM and the “maximum fold (Fold) increase” value was “***** (fold increase >1.65)”.

Consider `Cc1cn2cc(-c3cc4ccc(N5C[C@H]6CCN(C)[C@H]6C5)cc4oc3=O)cc2c(C)n1` [Compound 755, 3-(1,3-dimethylpyrrolo[1,2-a]pyrazin-7-yl)-7-[(3aR,6aR)-1-methylhexahydropyrrolo[3,4-b]pyrrol-5(1H)-yl]-2H-chromen-2-one], for which the melting point was 196 to 198 °C. For the same molecule, the EC (1.5-fold) in series [1] (setting [2]) was less than 0.1 µM. Moreover, the “maximum fold (Fold) increase” value in the series with Smn protein is “*** (fold increase between >1.35 and ≤1.5)”.

As for `Cc1cn2cc(-c3cc4ccc(C5CCN(C)CC5)cc4oc3=O)cnc2n1` [Compound 835, 3-(2-methylimidazo[1,2-a]pyrimidin-6-yl)-7-(1-methylpiperidin-4-yl)-2H-chromen-2-one], the melting point is 300 to 302 °C. Moreover, the EC (1.5-fold) in series [1] (setting [2]) lay in the range of 0.3 to 1 µM. Further, in the series with Smn protein, the EC1.5x (concentration giving 1.5-fold Smn protein increase) fell in the range of 300 to 1000 nM and the “maximum fold (Fold) increase” value is listed as “***** (fold increase >1.65)”.

The molecule `Cc1ccn2cc(-c3cc4ccc(O[C@@H]5CCNC5)cc4oc3=O)nc2n1.Cl.Cl` [Compound 322, 3-(7-methylimidazo [1,2-a]pyrimidin-2-yl)-7-[(3R)-pyrrolidin-3-yloxy]-2H-chromen-2-one hydrochloride (1:2)] yielded a melting point of 292 to 296 °C. For the same molecule, the EC (1.5-fold) in series [1] (setting [2]) is 0.3 to 1 µM. Also, the “maximum fold (Fold) increase” value in the series on Smn protein is “** (fold increase between >1.2 and ≤1.35)”.

As to `Cc1cn2cc(-c3cc4ccc(N5CCN(C)C(C)(C)C5)cc4oc3=O)nc2c(C)n1` [Compound 737, 3-(6,8-dimethylimidazo[1,2-a]pyrazin-2-yl)-7-(3,3,4-trimethylpiperazin-1-yl)-2H-chromen-2-one], the melting point fell in the range of 185 to 187 °C. In series [1] (setting [2]), the EC (1.5-fold) was less than 0.1 µM. For the same molecule, in the series with Smn protein, the EC1.5x (concentration giving 1.5-fold Smn protein increase) was less than 300 nM and the “maximum fold (Fold) increase” value is given as “***** (fold increase >1.65)”.

Molecule `Cl.O=c1oc2cc(OC3CCNCC3)ccc2cc1-c1cn2cccnc2n1` [Compound 197, 3-(imidazo[1,2-a]pyrimidin-2-yl)-7-(piperidin-4-yloxy)-2H-chromen-2-one hydrochloride] returned a melting point greater than 310 °C. For the same molecule, the EC (1.5-fold) in series [1] (setting [2]) was in the range of 0.3 to 1 µM. Moreover, the “maximum fold (Fold) increase” value in the series with Smn protein was “** (fold increase between >1.2 and ≤1.35)”.

Consider `Cc1ccn2cc(-c3cc4ccc(N5CCCNCC5)cc4oc3=O)nc2c1` [Compound 216, 7-(1,4-diazepan-1-yl)-3-(7-methylimidazo[1,2-a]pyridin-2-yl)-2H-chromen-2-one], for which the melting point is 236 °C. Also, in series [1] (setting [2]), the EC (1.5-fold) lay in the range of 0.3 to 1 µM. In addition, in the series with Smn protein, the “maximum fold (Fold) increase” value was “*** (fold increase between >1.35 and ≤1.5)”.

`Cc1cn2cc(-c3cc4ccc(C5CCN(C6CCC6)CC5)cc4oc3=O)nc2cn1` [Compound 869, 7-(1-cyclobutylpiperidin-4-yl)-3-(6-methylimidazo[1,2-a]pyrazin-2-yl)-2H-chromen-2-one] gave a melting point of 256 to 268 °C. For the same molecule, the EC (1.5-fold) in series [1] (setting [2]) was less than 0.1 µM. For the same molecule, in the series on Smn protein, the EC1.5x (concentration giving 1.5-fold Smn protein increase) is less than 300 nM and the “maximum fold (Fold) increase” value is on record as “***** (fold increase >1.65)”.

In turn, `CC(C)NCCCc1ccc2cc(-c3nc4c(Cl)cccc4s3)c(=O)oc2c1` [Compound 36, 3-(4-chloro-1,3-benzothiazol-2-yl)-7-[3-(propan-2-ylamino)propyl]-2H-chromen-2-one] gave a melting point of 262 to 265 °C. In addition, the EC (1.5-fold) in series [1] (setting [2]) lay within 1 to 3 µM. Besides, the “maximum fold (Fold) increase” value in the series on Smn protein is given as “* (maximum fold increase of ≤1.2)”.

Turning to `Cc1ccc2nc(-c3cc4ccc(N5CCN(C(C)C)CC5)cc4oc3=O)cn2c1` [Compound 82, 3-(6-methylimidazo[1,2-a]pyridin-2-yl)-7-[4-(propan-2-yl)piperazin-1-yl]-2H-chromen-2-one], the melting point was 260 °C (dec.). The EC (1.5-fold) in series [1] (setting [2]) lay in the range of 1 to 3 µM. Further, the “maximum fold (Fold) increase” value with Smn protein was “** (fold increase between >1.2 and ≤1.35)”.

Molecule `CN1CCC(N(C)c2ccc3cc(-c4cn5cccnc5n4)c(=O)oc3c2)C1` (stereo not drawn) [Compound 181, 3-(imidazo[1,2-a]pyrimidin-2-yl)-7-[methyl(1-methylpyrrolidin-3-yl)amino]-2H-chromen-2-one] registered a melting point of 215 to 217 °C. In series [1] (setting [2]), the EC (1.5-fold) is less than 0.1 µM. The “maximum fold (Fold) increase” value with Smn protein is “** (fold increase between >1.2 and ≤1.35)”.

Molecule `Cc1cn2cc(-c3cc4ccc(N5CCCN(C)CC5)cc4oc3=O)cnc2n1` [Compound 662, 7-(4-methyl-1,4-diazepan-1-yl)-3-(2-methylimidazo[1,2-a]pyrimidin-6-yl)-2H-chromen-2-one] returned a melting point of 286 to 289 °C. The EC (1.5-fold) in series [1] (setting [2]) is less than 0.1 µM. In addition, in the series on Smn protein, the EC1.5x (concentration giving 1.5-fold Smn protein increase) was in the range of 1000 to 3000 nM; the “maximum fold (Fold) increase” value was “*** (fold increase between >1.35 and ≤1.5)”.

In turn, `O=c1oc2cc(N3CCNCC3)c(F)cc2cc1-c1nc2ccccc2s1` [Compound 157, 3-(1,3-benzothiazol-2-yl)-6-fluoro-7-(piperazin-1-yl)-2H-chromen-2-one] gave a melting point of 255 to 260 °C. Besides, the EC (1.5-fold) in series [1] (24 h) is 0.1 to 0.3 µM. In addition, in the series with Smn protein, the “maximum fold (Fold) increase” value was “* (maximum fold increase of ≤1.2)”.

For the molecule `C[C@H]1CN(c2ccc3cc(-c4cn5cccc(F)c5n4)c(=O)oc3c2)CCN1C` [Compound 585, 7-[(3S)-3,4-dimethylpiperazin-1-yl]-3-(8-fluoroimidazo[1,2-a]pyridin-2-yl)-2H-chromen-2-one], the melting point was in the range of 188 to 192 °C. In addition, in series [1] (setting [2]), the EC (1.5-fold) was 0.3 to 1 µM. Further, in the series on Smn protein, the “maximum fold (Fold) increase” value is “*** (fold increase between >1.35 and ≤1.5)”.

The molecule `Cc1cn2cc(-c3cc4ccc(N5CCN(C6CC6)CC5)cc4oc3=O)nc2c(C)n1` [Compound 762, 7-(4-cyclopropylpiperazin-1-yl)-3-(6,8-dimethylimidazo[1,2-a]pyrazin-2-yl)-2H-chromen-2-one] gave a melting point of 263 to 266 °C. Moreover, in series [1] (setting [2]), the EC (1.5-fold) is less than 0.1 µM. Moreover, in the series on Smn protein, the EC1.5x (concentration giving 1.5-fold Smn protein increase) lay within 300 to 1000 nM; the “maximum fold (Fold) increase” value was “**** (fold increase between >1.5 and ≤1.65)”.

On to `Cc1ccn2cc(-c3cc4ccc(N5CCCNCC5)cc4oc3=O)nc2n1` [Compound 230, 7-(1,4-diazepan-1-yl)-3-(7-methylimidazo[1,2-a]pyrimidin-2-yl)-2H-chromen-2-one], for which the melting point is 286 to 288 °C. In addition, in series [1] (setting [2]), the EC (1.5-fold) was in the range of 0.3 to 1 µM. Also, the “maximum fold (Fold) increase” value with Smn protein is “*** (fold increase between >1.35 and ≤1.5)”.

In turn, `Cc1csc2nc(-c3cc4ccc(N5CCN(C)CC5)cc4oc3=O)cn12` [Compound 185, 3-(3-methylimidazo[2,1-b][1,3]thiazol-6-yl)-7-(4-methylpiperazin-1-yl)-2H-chromen-2-one] registered a melting point of 213 to 216 °C. In addition, the EC (1.5-fold) in series [1] (setting [2]) fell in the range of 3 to 30 µM. Besides, the “maximum fold (Fold) increase” value in the series with Smn protein is on record as “* (maximum fold increase of ≤1.2)”.

The molecule `Cc1cn2cc(-c3ccc4cc(N5CCNCC5)c(=O)oc4c3)ccc2n1` [Cpd 818, 7-(2-methylimidazo[1,2-a]pyridin-6-yl)-3-(piperazin-1-yl)-2H-chromen-2-one] came in with a melting point of 174 to 178 °C. The EC (1.5-fold) in series [1] (setting [2]) lay within 1 to 3 µM. In addition, the “maximum fold (Fold) increase” value with Smn protein is reported as “* (maximum fold increase of ≤1.2)”.

Source of the values: USRE47689E1, “Compounds for treating spinal muscular atrophy” (PTC Therapeutics, Inc., priority 2011, dated 2019).
